In US10087178B2, “Substituted spiropyrido[1,2-a]pyrazine derivative and medicinal use thereof as HIV integrase inhibitor” (priority 2012, dated 2018):
Structures can show the parent of a compound that is named as a salt. Where two headings read alike, the source gives them in different places.

Tested on: HIV-1 NL4-3 strain
Assay: Evaluation of antiviral activity: acute infection system of MT-4 cell with HIV-1 NL4-3 strain
Assay type: cell-based
[1] = Human immunodeficiency virus 1, NL43, MT4, 120 h, MT-4 cells infected with HIV-1 NL4-3 strain (MOI 0.05), cultured 5 days, Cell Titer-Glo, read-out: antiviral activity (EC50)
[2] = Human immunodeficiency virus 1, NL43, MT4, 120 h, read-out: antiviral activity (EC50), MT-4 cells infected with HIV-1 NL4-3 strain (MOI 0.05), cultured 5 days, Cell Titer-Glo

COC[C@H]1C[C@@]12CN(C)C(=O)c1c(O)c(=O)c(C(=O)NCc3cccc(Cl)c3F)cn12 [Example T16, (1S.2S)-N-(3-chloro-2-fluorobenzyl)-9′-hydroxy-2-(methoxymethyl)-2′-methyl-1′,8′-dioxo-1′,2′,3′,8′-tetrahydrospiro[cyclopropane-1,4′-pyrido[1,2-a]pyrazine]-7′-carboxamide hydrochloride]
EC50 [1]: 4.2 nM

CCN1C[C@]2(C[C@H]2CO)n2cc(C(=O)NCc3cccc(Cl)c3F)c(=O)c(O)c2C1=O [Example T17, (1R,2R)-N-(3-chloro-2-fluorobenzyl)-2′-ethyl-9′-hydroxy-2-(hydroxymethyl)-1′,8′-dioxo-1′,2′,3′,8′-tetrahydrospiro[cyclopropane-1,4′-pyrido[1,2-a]pyrazine]-7′-carboxamide hydrochloride]
EC50 [2]: 5.7 nM

CCN1C[C@@]2(C[C@@H]2CO)n2cc(C(=O)NCc3cccc(Cl)c3F)c(=O)c(O)c2C1=O [Example T18, (1S,2S)-N-(3-chloro-2-fluorobenzyl)-2′-ethyl-9′-hydroxy-2-(hydroxymethyl)-1′,8′-dioxo-1′,2′,3′,8′-tetrahydrospiro[cyclopropane-1,4′-pyrido[1,2-a]pyrazine]-7′-carboxamide hydrochloride]
EC50 [2]: 10 nM

CCN1C[C@@]2(C[C@@H]2COC)n2cc(C(=O)NCc3cccc(Cl)c3F)c(=O)c(O)c2C1=O [Example T19, (1S,2S)-N-(3-chloro-2-fluorobenzyl)-2′-ethyl-9′-hydroxy-2-(methoxymethyl)-1′,8′-dioxo-1′,2′,3′,8′-tetrahydrospiro[cyclopropane-1,4′-pyrido[1,2-a]pyrazine]-7′-carboxamide]
EC50 [1]: 3.8 nM

CCN1C[C@]2(C[C@H]2COC)n2cc(C(=O)NCc3cccc(Cl)c3F)c(=O)c(O)c2C1=O [Example T20, (1R,2R)-N-(3-chloro-2-fluorobenzyl)-2′-ethyl-9′-hydroxy-2-(methoxymethyl)-1′,8′-dioxo-1′,2′,3′,8′-tetrahydrospiro[cyclopropane-1,4′-pyrido[1,2-a]pyrazine]-7′-carboxamide hydrochloride]
EC50 [2]: 3.5 nM

COC[C@H]1C[C@@]12CN(C)C(=O)c1c(O)c(=O)c(C(=O)NCc3cc(OC)cc(Cl)c3F)cn12 [Example T21, (1S,2S)-N-(3-chloro-2-fluoro-5-methoxybenzyl)-9′-hydroxy-2-(methoxymethyl)-2′-methyl-1′,8′-dioxo-1′,2′,3′,8′-tetrahydrospiro[cyclopropane-1,4′-pyrido[1,2-a]pyrazine]-7′-carboxamide]
EC50 [1]: 6.1 nM

COC[C@H]1C[C@@]12CN(C)C(=O)c1c(O)c(=O)c(C(=O)NCc3ccc(OC)c(Cl)c3F)cn12 [Example T22, (1S,2S)-N-(3-chloro-2-fluoro-4-methoxybenzyl)-9′-hydroxy-2-(methoxymethyl)-2′-methyl-1′,8′-dioxo-1′,2′,3′,8′-tetrahydrospiro[cyclopropane-1,4′-pyrido[1,2-a]pyrazine]-7′-carboxamide hydrochloride]
EC50 [2]: 4.9 nM

CN1C[C@]2(C[C@H]2CO)n2cc(C(=O)NCc3cccc(Cl)c3F)c(=O)c(O)c2C1=O [Example T23, (1R,2R)-N-(3-chloro-2-fluorobenzyl)-9′-hydroxy-2-(hydroxymethyl)-2′-methyl-1′,8′-dioxo-1′,2′,3′,8′-tetrahydrospiro[cyclopropane-1,4′-pyrido[1,2-a]pyrazine]-7′-carboxamide hydrochloride]
EC50 [2]: 9.6 nM

COC[C@@H]1C[C@]12CN(C)C(=O)c1c(O)c(=O)c(C(=O)NCc3cccc(Cl)c3F)cn12 [Example T24, (1R,2R)-N-(3-chloro-2-fluorobenzyl)-9′-hydroxy-2-(methoxymethyl)-2′-methyl-1′,8′-dioxo-1′,2′,3′,8′-tetrahydrospiro[cyclopropane-1,4-pyrido[1,2-a]pyrazine]-7′-carboxamide hydrochloride]
EC50 [2]: 3.2 nM

CCOc1cc(Cl)c(F)c(CNC(=O)c2cn3c(c(O)c2=O)C(=O)N(C)C[C@@]32C[C@@H]2COC)c1 [Example T25, (1S,2S)-N-(3-chloro-5-ethoxy-2-fluorobenzyl)-9′-hydroxy-2-(methoxymethyl)-2′-methyl-1′,8′-dioxo-1′,2′,3′,8′-tetrahydrospiro[cyclopropane-1,4′-pyrido[1,2-a]pyrazine]-7′-carboxamide hydrochloride]
EC50 [2]: 7 nM

COC[C@H]1C[C@@]12CN(C)C(=O)c1c(O)c(=O)c(C(=O)NCc3cc(OC(C)C)cc(Cl)c3F)cn12 [Example T26, (1S,2S)-N-(3-chloro-2-fluoro-5-isopropoxybenzyl)-9′-hydroxy-2-(methoxymethyl)-2′-methyl-1′,8′-dioxo-1′,2′,3′,8′-tetrahydrospiro[cyclopropane-1,4′-pyrido[1,2-a]pyrazine]-7′-carboxamide hydrochloride]
EC50 [2]: 15 nM

CCN1C[C@@]2(C[C@@H]2COC)n2cc(C(=O)NCc3cccc(C(F)(F)F)c3F)c(=O)c(O)c2C1=O [Example T27, (1S,2S)-2′-ethyl-N-(2-fluoro-3-(trifluoromethyl)benzyl)-9′-hydroxy-2-(methoxymethyl)-1′,8′-dioxo-1′,2′,3′,8′-tetrahydrospiro[cyclopropane-1,4′-pyrido[1,2-a]pyrazine]-7′-carboxamide]
EC50 (MT-4 cells infected with HIV-1 NL4-3 strain (MOI 0.05), cultured 5 days, Cell Titer-Glo, read-out: antiviral activity (EC50)): 97 nM

CC(C)N1C[C@@]2(C[C@H]2CO)n2cc(C(=O)NCc3cccc(Cl)c3F)c(=O)c(O)c2C1=O [Example T28, (1S,2R)-N-(3-chloro-2-fluorobenzyl)-9′-hydroxy-2-(hydroxymethyl)-2′-isopropyl-1′,8′-dioxo-1′,2′,3′,8′-tetrahydrospiro[cyclopropane-1,4′-pyrido[1,2-a]pyrazine]-7′-carboxamide hydrochloride]
EC50 [2]: 5.2 nM

CCN1C[C@@]2(C[C@H]2CO)n2cc(C(=O)NCc3cccc(Cl)c3F)c(=O)c(O)c2C1=O [Example T29, (1S,2R)-N-(3-chloro-2-fluorobenzyl)-2′-ethyl-9′-hydroxy-2-(hydroxymethyl)-1′,8′-dioxo-1′,2′,3′,8′-tetrahydrospiro[cyclopropane-1,4′-pyrido[1,2-a]pyrazine]-7′-carboxamide hydrochloride]
EC50 [2]: 4.8 nM

CCN1C[C@@]2(C[C@H]2COC)n2cc(C(=O)NCc3cccc(Cl)c3F)c(=O)c(O)c2C1=O [Example T30, (1S,2R)-N-(3-chloro-2-fluorobenzyl)-2′-ethyl-9′-hydroxy-2-(methoxymethyl)-1′,8′-dioxo-1′,2′,3′,8′-tetrahydrospiro[cyclopropane-1,4′-pyrido[1,2-a]pyrazine]-7′-carboxamide]
EC50 [1]: 4.4 nM

CCOC[C@H]1C[C@@]12CN(C)C(=O)c1c(O)c(=O)c(C(=O)NCc3ccc(OC)c(Cl)c3F)cn12 [Example T31, (1S,2S)-N-(3-chloro-2-fluoro-4-methoxybenzyl)-2-(ethoxymethyl)-9′-hydroxy-2′-methyl-1′,8′-dioxo-1′,2′,3′,8′-tetrahydrospiro[cyclopropane-1,4′-pyrido[1,2-a]pyrazine]-7′-carboxamide]
EC50 [1]: 12 nM

CN(C)C(=O)[C@H]1C[C@@]12CN(C1CC1)C(=O)c1c(O)c(=O)c(C(=O)NCc3cccc(Cl)c3F)cn12 [Example T32, (1S,2S)-N^7′-(3-chloro-2-fluorobenzyl)-2′-cyclopropyl-9′-hydroxy-N^2,N^2-dimethyl-1′,8′-dioxo-1′,2′,3′,8′-tetrahydrospiro[cyclopropane-1,4′-pyrido[1,2-a]pyrazine]-2,7′-dicarboxamide]
EC50 [1]: 3.3 nM
